In patent US7196110B2, “N-substituted tricyclic 3-aminopyrazoles as inhibitors for the treatment of cell proliferative disorders” (Janssen Phamaceutica N.V., priority 2002, dated 2007):

Test system: Human tumor cell lines (LoVo, MDA-MB-231, H460 etc.)
Test: Anti-tumor assay, human tumor nude mouse xenograft model
Assay type: in vivo, athymic nude mice
Conditions: 50 mg/kg
Experimental: The anti-tumor activity of experimental compounds was evaluated in vivo using the human tumor nude mouse xenograft model. All procedures involving animals were conducted in an animal facility fully accredited by the American Association for Assessment and Accreditation of Laboratory Animal Care (AAALAC) and in accordance with The Guide for the Care and Use of Laboratory Animals (NIH). Protocols were approved by the RWJ-PRI Internal Animal Care and Use Committee (IACUC).
Human tumor cell lines (LoVo, MDA-MB-231, H460 etc.) were obtained from American Type Culture Collection and cultured under specified conditions required for each cell type. Female athymic nude mice (Charles River nu/nu) were injected subcutaneously in the inguinal region of the thigh with 1–2×10^6 tumor cells in 0.1 mL volume on day zero. For growth delay studies, mice were dosed orally with vehicle (control group) or experimental drugs beginning three days after tumor cell inoculation. Compounds were prepared in 0.5% methylcellulose and treatments were administered bid for 30–35 consecutive days. Tumor growth was measured twice a week using calipers for the duration of the treatment. Tumor areas (mm^2) were calculated as a product of length×width. […] Differences between treated and control mice were analyzed statistically by ANOVA and Dunnett's t-test. […]

SMILES: COc1cc2c(cc1OC)-c1n[nH]c(Nc3cccc(F)c3)c1C2 [Compound 14, (3-Fluoro-phenyl)-(6,7-dimethoxy-2,4-dihydro-indeno[1,2-c]pyrazol-3-yl)-amine]
- tumor growth inhibition: 72%
